“Also recorded” adds a separate entry of the source. No end group written: not given here.
How the values were obtained:
human erythrocytes = assay: Hemolytic activity assay; format: cell-based; details: for hemolytic activity: 0.1 to 100 μmol L^−1; for MHC / Hemolytic activity, concentration of peptide needed to kill 10% of red blood cells: human erythrocytes, 1 h; for MHC: room temperature, concentration with approximately 0% of hemolytic activity
Protocol: Method. Assays against freshly collected human erythrocytes were performed following protocols described by Pedron et al. 62. Briefly, peptide aliquots at concentrations ranging from 0.1 to 100 μmol L−1 were incubated with a suspension of erythrocytes at room temperature for 1 h. The samples were then centrifuged, and the absorbance of the supernatant was measured at 405 nm. The MHC (maximal non-hemolytic concentration) was determined as the maximal concentration at which 100% of the erythrocytes were viable. The surfactant SDS and PBS buffer were used as positive88, 89 and negative controls, respectively. Sodium heparin was used as an anticoagulant when collecting human blood. Three biological repeats were performed.

S. marcescens ATCC 4112 = assay: Liquid growth inhibition assay, MIC; format: cell-based, Serratia marcescens; details: 37° C., 18 h
Protocol: (§1) Initially, the antimicrobial activity was determined by liquid growth inhibition assays, as previously described by Pedron et al.^62. Briefly, Peptone Broth and Potato Dextrose Broth (Invitrogen) were used for antibacterial and antifungal assays, respectively. Two-fold serial dilutions of peptides (0.09-50 μmol L^−1) and microorganisms (Serratia marcescens ATCC 4112, Enterobacter cloacae β-12, Micrococcus luteus A270, Bacillus megaterium ATCC 10778, Bacillus subtilis ATCC 6633, Candida albicans MDM8, and Candida tropicalis IOC 4560) were incubated at 37° C. for 18 h (for bacteria) or 24 h (for fungi), and microbial growth was assessed by absorbance measurements at 595 nm. Experiments were performed in three biological repeats.

E. cloacae β-12 = assay: Liquid growth inhibition assay, MIC; format: cell-based, Enterobacter cloacae; details: 37° C., 18 h
Protocol: as §1

B. megaterium ATCC 10778 = assay: Liquid growth inhibition assay, MIC; format: cell-based, Bacillus megaterium; details: 37° C., 18 h
Protocol: as §1

M. luteus A270 = assay: Liquid growth inhibition assay, MIC; format: cell-based, Micrococcus luteus; details: 37° C., 18 h
Protocol: as §1

[1] = tested on: S. epidermidis ATCC 12228; assay: Liquid growth inhibition assay, MIC; format: cell-based; details: 37° C., 18 h
C. albicans MDM8 = assay: Liquid growth inhibition assay, MIC (antifungal); format: cell-based, Candida albicans; details: 37° C., 24 h
Protocol: as §1

C. tropicalis IOC 4560 = assay: Liquid growth inhibition assay, MIC (antifungal); format: cell-based, Candida tropicalis; details: 37° C., 24 h
Protocol: as §1

bacterial strains = assay: Antimicrobial activity over the panel of strains; format: cell-based; details: range over strains tested
Protocol: as §1
(§2) Method. The minimal inhibitory concentration (MIC) against the ESKAPE pathogens was determined using the broth microdilution method^81, 82 in Luria-Bertani (LB) medium. The MIC value was defined as the lowest concentration of peptide at which no microbial growth was observed. A. baumannii ATCC19606, E. coli ATCC11775, E. coli AIC221, E. coli AIC222, K. pneumoniae ATCC13883, S. aureus ATCC12600 P. aeruginosa PAO1, and P. aeruginosa PA14 were incubated on agar plates, and after 24 h, three isolated colonies were inoculated to 5 mL of Luria-Bertani (LB) broth and maintained at 37° C. overnight with shaking. Peptides were then added to 96-well polystyrene microtiter plates at concentrations ranging from 0 to 128 μmol L^−1, and 5×10^5 CFU mL^−1 of each bacterium was inoculated in each well. The plates were incubated at 37° C. for 24 h. Bacterial growth was measured using a microplate reader at 610 nm. Three independent replicates were performed.

[2] = Resistance to degradation in fetal bovine serum; format: in vitro ADME; details: for remaining at 0.5 h: read-out: remaining peptide, 30 min; for remaining at 1 h: read-out: remaining peptide, 1 h; for remaining at 2 h: read-out: remaining peptide, 2 h
Protocol: The resistance to proteolytic degradation of the hybrid peptides was assessed by exposing them for 6 h to serum peptidases in a fetal bovine serum solution^68, 69 (FIG. 5a and Table S4). The peptide degradation kinetics were calculated by integrating the peak area of the peak in relation to the peptide at the beginning of the experiment (time=0) and comparing it to the integrated peak area relative to the peptides after exposure to the enzymes at time points: 0.5, 1, 2, 4, and 6 h (FIG. 5a and Table S4). […] However, AV was resistant to degradation against proteases, with almost 40% peptide content remaining after 4 h of exposure (FIG. 5a and Table S4). […] VP was almost entirely degraded after 30 min (22% of peptide remaining). […] D-amino acid substitutions have been used as alternatives to prevent the degradation of AMPs. For example, Qiu et. al. described a protonectin analog with a D-Lys residue in position 10 as an alternative to protonectin; this analog is not degraded and has higher antimicrobial activity against bacteria and fungi than the original peptide.
Methods. Stability assays were performed following the protocol described by Torres et al.^71. Briefly, a peptide solution was added to GIBCO fetal bovine serum diluted to 25% in water and kept at 37° C. The degradation kinetics were monitored by liquid chromatography and the percentage of peptide remaining was calculated by integrating the peptide peak area. The experiments were performed as three independent replicates, and aliquots were taken at 0, 0.5, 1, 2, 4, and 6 h.

P. aeruginosa PAO1 = assay: Broth microdilution MIC, ESKAPE pathogens; format: cell-based; details: LB, 37° C., 24 h
Protocol: as §2

E. coli ATCC11775 = assay: Broth microdilution MIC, ESKAPE pathogens; format: cell-based; details: LB, 37° C., 24 h
Protocol: as §2

K. pneumoniae ATCC13883 = assay: Broth microdilution MIC, ESKAPE pathogens; format: cell-based; details: LB, 37° C., 24 h
Protocol: as §2

S. aureus ATCC12600 = assay: Broth microdilution MIC, ESKAPE pathogens; format: cell-based; details: LB, 37° C., 24 h
Protocol: as §2

E. coli AIC222 = assay: Broth microdilution MIC, ESKAPE pathogens; format: cell-based; details: LB, 37° C., 24 h
Protocol: as §2

E. coli AIC221 = assay: Broth microdilution MIC, ESKAPE pathogens; format: cell-based; details: LB, 37° C., 24 h
Protocol: as §2

P. aeruginosa PA14 = assay: Broth microdilution MIC, ESKAPE pathogens; format: cell-based; details: LB, 37° C., 24 h
Protocol: as §2

A. baumannii ATCC19606 = assay: Broth microdilution MIC, ESKAPE pathogens; format: cell-based; details: LB, 37° C., 24 h
Protocol: as §2

[3] = tested on: MCF-7 human breast cancer cells; assay: Anticancer activity, MTT assay; format: cell-based; details: MTT
Protocol: The anticancer activity assays were performed using MCF-10A human breast epithelial cells and MCF-7 mammary cancer cells as previously described by Pedron et al. 86. Briefly, the day before treatment, the cells were incubated at 37° C. and 5% CO2 for 24 h. The cells were treated with peptides ranging from 12.5 to 100 μmol L^−1 (MCF10-A cells) and 0.8 to 100 μmol L^−1 (MCF-7 cells) for 4 h and 24 h at 37° C., and cell viability was measured using 3-(4,5-Dimethylthiazol-2-yl)-2,5-diphenyltetrazolium bromide (MTT) assays 87. Three independent replicates were performed in each case.

[4] = bovine, fetal bovine serum, 25% in water, fetal bovine serum 25% in water, 37° C., 30 min
[5] = bovine, fetal bovine serum, 25% in water, fetal bovine serum 25% in water, 37° C.

Substance	hemolytic activity (human erythrocytes)	MHC (human erythrocytes)	MIC S. marcescens ATCC 4112 (S. marcescens ATCC 4112)	MIC E. cloacae β-12 (E. cloacae β-12)	MIC B. megaterium ATCC 10778 (B. megaterium ATCC 10778)	MIC M. luteus A270 (M. luteus A270)	MIC S. epidermidis ATCC 12228 [1]	MIC C. albicans MDM8 (C. albicans MDM8)	MIC C. tropicalis IOC 4560 (C. tropicalis IOC 4560)	remaining at 0.5 h [2, 4]	resistance to degradation ([2]; fetal bovine serum)	Hemolytic activity, concentration of peptide needed to kill 10% of red blood cells (human erythrocytes)	MIC P. aeruginosa PAO1 (P. aeruginosa PAO1)	MIC E. coli ATCC11775 (E. coli ATCC11775)	MIC K. pneumoniae ATCC13883 (K. pneumoniae ATCC13883)	MIC S. aureus ATCC12600 (S. aureus ATCC12600)	MIC E. coli AIC222 (E. coli AIC222)	MIC E. coli AIC221 (E. coli AIC221)	MIC P. aeruginosa PA14 (P. aeruginosa PA14)	MIC A. baumannii ATCC19606 (A. baumannii ATCC19606)	other results
FLGSLWRKAGTVF-NH2 [VD]	minimal hemolytic activity; also recorded: no hemolytic activity was detected	>100 µmol/L	12.5 µM	>50 µM	6.3 µM	25 µM	>50 µM	25 µM	6.3 µM	~10%	the greatest resistance to proteolytic degradation	–	–	–	–	–	–	–	–	–	MIC range of the peptide over the strains (bacterial strains): 6.3 to 25 µM; remaining at 6 h ([2]; bovine, fetal bovine serum, 25% in water, fetal bovine serum 25% in water, 37° C., 6 h, read-out: remaining peptide, 6 h): ~50%
FLGTLWGGAKGVF-NH2 [VP]	minimal hemolytic activity	>100 µmol/L	>50 µM	>50 µM	>50 µM	>50 µM	>50 µM	>50 µM	>50 µM	22%	–	100 µmol/L	128 µM	128 µM	128 µM	128 µM	128 µM	128 µM	128 µM	128 µM	remaining at 1 h [2, 5]: < 20%; remaining at 2 h [2, 5]: < 10%; remaining peptide, 30 min ([2]; fetal bovine serum 25% in water, 37° C., 30 min): ~20%
H-GLLKRIKTLL-NH2 [Anoplin, reference compound]	–	50 µmol/L	6.3 µM	3.1 µM	0.8 µM	1.6 µM	6.3 µM	1.6 µM	1.6 µM	~20%	–	50 µmol/L	–	–	–	–	–	–	–	–	remaining at 1 h [2, 5]: ~20%; remaining at 2 h [2, 5]: ~10%
ILGTILGLLKGL-NH2 [Protonectin, reference compound]	–	12.5 µmol/L	6.3 µM	25 µM	3.1 µM	3.1 µM	25 µM	12.5 µM	12.5 µM	–	quickly degraded	12.5 µmol/L	128 µM	16 µM	64 µM	8 µM	8 µM	16 µM	128 µM	16 µM	MCF-7 4 h LD50 ([3]; MCF-7, 4 h): 25 µmol/L; MCF-7 24 h LD50 ([3]; MCF-7, 24 h): 25 µmol/L
